Source: patent publication US20130164226A1, “FOAMABLE AEROSOL COMPOSITION” (DAIZO CORPORATION, priority 2010, published 2013)

Test: Solubility of the liquefied gas in water
Format: physicochemical
Conditions: at 20° C.
Description: In the present invention, the liquefied gas to be blended is characterized by being a poorly water-soluble liquefied gas having solubility in water at 20° C. of less than 10 wt %, preferably less than 5 wt %. When the solubility of the liquefied gas in water is more than 10 wt %, the liquefied gas is hardly emulsified with the concentrate and emulsification stability is apt to be lowered, and therefore, a uniform composition tends to be hardly sprayed. In addition, in the case of blending a gas mixture as the liquefied gas, it is enough for the gas mixture to have properties corresponding to those of a poorly water-soluble liquefied gas.

| SMILES | solubility in water |
| --- | --- |
| COC [dimethyl ether (*17), dimethyl ether] | 33 wt % |
| F/C=C/C(F)(F)F [trans-1,3,3,3-tetrafluoroprop-1-ene] | ≤ 1 wt % |
